From EP3991729A1, “USE OF AMLEXANOX IN PREPARING ANTI-HEPATITIS VIRUS DRUG” (Marine Biomedical Research Institute Of Qingdao Co., Ltd., priority 2019, dated 2020)
Structures can show the parent of a compound that is named as a salt.

Assays:
293 cells = assay: Cytotoxicity test, MTT assay; format: cell-based; conditions: Homo sapiens, HEK293; 1 µM, 72h
Protocol: (§1) […]. Various cells in the logarithmic growth phase were seeded in 96-well plates at 6,000 cells/well and cultured for 24h. […]. The dosage of DMSO in the solvent control group was based on the maximum dose of 0.1% used in the test group, with four duplicate wells for each concentration. Cells were treated with the drug for 72h and then added with 20µL 5 mg/mL MTT, cultured at 37°C for 4h, after added 100 µ L triple solution (10% SDS, 5% isobutanol, 12 mM hydrochloric acid), 96-well cell culture plate was placed in an incubator containing 5% CO2 at 37 ± 1°C overnight. OD value at 570nm was measured on a microplate reader.
(§2) The inhibition rate of tumor cell growth was calculated according to the following formula: Inhibition rate(%) = [(OD570controlwell−OD570dosewell)/OD570controlwell] × 100. [formula]

A549 cells = assay: Cytotoxicity test, MTT assay; format: cell-based; conditions: Homo sapiens, A549; 1 µM, 72h
Protocol: as §1, §2

HCT-116 cells = assay: Cytotoxicity test, MTT assay; format: cell-based; conditions: Homo sapiens, HCT-116; 1 µM, 72h
Protocol: as §1, §2

Hela cells = assay: Cytotoxicity test, MTT assay; format: cell-based; conditions: Homo sapiens, 1 µM, 72h, read-out: Inhibition (%) Hel a
Protocol: as §1, §2

HepG2 cells = assay: Cytotoxicity test, MTT assay; format: cell-based; conditions: Homo sapiens, HepG2; 1 µM, 72h; read-out: Inhibition (%) Hep G2
Protocol: as §1, §2

Huh7 cells = assay: Cytotoxicity test, MTT assay; format: cell-based; conditions: Homo sapiens, Huh-7; 1 µM, 72h; read-out: Inhibition (%) Hu h7
Protocol: as §1, §2

MCF7 cells = assay: Cytotoxicity test, MTT assay; format: cell-based; conditions: Homo sapiens, MCF7; 1 µM, 72h; read-out: Inhibition (%) MC F7
Protocol: as §1, §2

MKN45 cells = assay: Cytotoxicity test, MTT assay; format: cell-based; conditions: Homo sapiens, MKN-45; 1 µM, 72h
Protocol: as §1, §2

B and T cells = assay: Immune cells in blood of HBV-infected mice, flow cytometry; conditions: 530 mg/kg/day, once a day, oral gavage, day 9, Figure 19
Protocol: Six-week-old male C57 mice were rapidly injected with 10µg/mouse of viral genomic DNA (genotype A) by tail vein injection in a short period. Viral infection was established using a venous hypertension model and randomly divided into groups. […] At the same time, a blank control was set up, and oral administration in uninfected mice was equivalent to the model group.
On day 9, mice were sacrificed to collect blood stained with flow antibody after fission red. All cells were treated with anti-FcγRIII/ II (purchased from BD Biosciences) in PBS for 30 min. CD3e-FITC (purchased from BD Biosciences). CD4-PE, CD8a-APC-Vio770, and CD34-FITC (GE). CD19-APC, CD11b-PE-Cyanine7, and CD117-efflor 450 (purchased from eBioscience). After staining, the samples were suspended using 500µL PBS and analyzed by BD Aria III flow cytometer.

COc1cccc2c1C(=O)c1c(O)c3c(c(O)c1C2=O)C[C@@](O)(C(=O)CO)C[C@@H]3O[C@H]1C[C@H](N)[C@H](O)[C@H](C)O1 [Adriamyci n Hydrochloride, doxorubicin hydrochloride]
inhibition at 1 µM (293 cells): 57.9%
inhibition at 1 µM (A549 cells): 85.8%
inhibition at 1 µM (HCT-116 cells): 71.9%
inhibition at 1 µM (Hela cells): 48.8%
inhibition at 1 µM (HepG2 cells): 92.1%
inhibition at 1 µM (Huh7 cells): 76.9%
inhibition at 1 µM (MCF7 cells): 88%
inhibition at 1 µM (MKN45 cells): 39.4%

Nc1ccn([C@@H]2CS[C@H](CO)O2)c(=O)n1 [lamivudine]
effect on immune cells in blood (B and T cells): had some inhibitory effects on immune cells
